The target in the experiment is GST tagged IRAK4 (Homo sapiens (Human), UniProt Q9NWZ3). Kind of experiment: Determination of IRAK4 kinase activity (IMAP fluorescence polarization). It counts as biochemical. The note with it: 0.5 nM GST tagged IRAK4, 100 nM fluorescent peptide substrate RP7030, 100 μM ATP, 30 minutes at 25° C. On the procedure:
The kinase activity of IRAK4 is determined by its ability to catalyze the phosphorylation of a fluorescent polypeptide substrate. The extent of phosphorylation is measured using IMAP technology (Molecular Devices) where the phosphorylated fluorescent substrate binds to the large M(III)-based nanoparticles which reduces the rotational speed of the substrate and thus increases its fluorescent polarization (FP).
Procedure: A 20 μl reaction mixture contains 10 mM TriHCl, pH 7.2, 0.5 nM GST tagged IRAK4 (SignalChem), 100 nM fluorescent peptide substrate (RP7030, Molecular Devices), 100 μM ATP, 1 mM DTT, 1 mM MgCl2, and 0.01% Tween 20. The reaction is initiated by the addition of ATP. After incubation for 30 minutes at 25° C., 60 μl of Progressive IMAP Reagent (Molecular Devices) is added to stop the reaction. Change in RP7030's FP is determined by a FP reader (Analyst HT, LJL BioSystems).
A general note: Polarisation of emitted light reports the rotation of a fluorescent probe.

GST tagged IRAK4, sequence (Q9NWZ3 whole entry): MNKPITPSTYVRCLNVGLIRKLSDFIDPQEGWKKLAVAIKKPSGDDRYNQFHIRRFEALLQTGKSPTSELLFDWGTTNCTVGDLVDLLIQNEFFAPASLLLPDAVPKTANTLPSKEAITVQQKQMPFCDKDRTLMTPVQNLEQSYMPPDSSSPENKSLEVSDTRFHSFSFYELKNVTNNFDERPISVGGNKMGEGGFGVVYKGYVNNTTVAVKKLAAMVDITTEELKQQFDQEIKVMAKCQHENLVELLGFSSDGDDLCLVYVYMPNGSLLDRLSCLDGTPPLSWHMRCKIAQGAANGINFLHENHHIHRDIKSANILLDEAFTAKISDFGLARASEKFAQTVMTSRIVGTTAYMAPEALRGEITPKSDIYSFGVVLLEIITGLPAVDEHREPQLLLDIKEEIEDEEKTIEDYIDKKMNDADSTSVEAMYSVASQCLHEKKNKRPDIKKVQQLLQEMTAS

As for `CN(C)CCCCCNC(=O)c1nn(C)cc1NC(=O)c1cccc(-c2ccnc(NCC3CC3)c2)n1` [Example 37, 2′-((cyclopropylmethyl)amino)-N-(3-((5-(dimethylamino)pentyl)carbamoyl)-1-methyl-1H-pyrazol-4-yl)-[2,4′-bipyridine]-6-carboxamide], half-maximal inhibition (IC50) was put at 2190 nM. In the case of `Cn1cc(NC(=O)c2cccc(-c3ccnc(NCC4CC4)c3)n2)c(C(=O)NCCc2ccccn2)n1` [Example 38, 2′-((cyclopropylmethyl)amino)-N-(1-methyl-3-((2-(pyridin-2-yl)ethyl)carbamoyl)-1H-pyrazol-4-yl)-[2,4′-bipyridine]-6-carboxamide], the IC50 turned out to be 4970 nM. Take `CN1CCN(C(=O)c2nn(C)cc2NC(=O)c2cccc(-c3ccnc(NCC4CC4)c3)n2)CC1` [Example 39, 2′-((cyclopropylmethyl)amino)-N-(1-methyl-3-(4-methylpiperazine-1-carbonyl)-1H-pyrazol-4-yl)-[2,4′-bipyridine]-6-carboxamide]: the IC50 was 2910 nM. Compound `CN(C)CCCNC(=O)c1nn(C)cc1NC(=O)c1cccc(-c2ccnc(NCC3CC3)c2)n1` [Example 40, 2′-((cyclopropylmethyl)amino)-N-(3-((3-(dimethylamino)propyl)carbamoyl)-1-methyl-1H-pyrazol-4-yl)-[2,4′-bipyridine]-6-carboxamide] showed an IC50 of 535 nM.

`Cn1cc(NC(=O)c2cccc(-c3ccnc(NCC4CC4)c3)n2)c(C(=O)N2CC(CN)C2)n1` [Example 42, N-(3-(3-(aminomethyl)azetidine-1-carbonyl)-1-methyl-1H-pyrazol-4-yl)-2′-((cyclopropylmethyl)amino)-[2,4′-bipyridine]-6-carboxamide] came in with an IC50 of 190 nM.

Regarding `Cn1cc(NC(=O)c2cccc(-c3ccnc(NCC4CC4)c3)n2)c(C(=O)Nc2cncnc2)n1` [Example 43, 2′-((cyclopropylmethyl)amino)-N-(1-methyl-3-(pyrimidin-5-ylcarbamoyl)-1H-pyrazol-4-yl)-[2,4′-bipyridine]-6-carboxamide], half-maximal inhibition (IC50) required 1580 nM. As to `Cn1cc(NC(=O)c2cccc(-c3ccnc(NCC4CC4)c3)n2)c(C(=O)NCCc2cnccn2)n1` [Example 44, 2′-((cyclopropylmethyl)amino)-N-(1-methyl-3-((2-(pyrazin-2-yl)ethyl)carbamoyl)-1H-pyrazol-4-yl)-[2,4′-bipyridine]-6-carboxamide], half-maximal inhibition (IC50) required 2670 nM. `Cn1cc(NC(=O)c2cccc(-c3ccnc(NCC4CC4)c3)n2)c(C(=O)NCC2CCS(=O)(=O)C2)n1` (centres unmarked) [Example 45, 2′-((cyclopropylmethyl)amino)-N-(3-(((1,1-dioxidotetrahydrothiophen-3-yl)methyl)carbamoyl)-1-methyl-1H-pyrazol-4-yl)-[2,4′-bipyridine]-6-carboxamide] yielded an IC50 of 3620 nM. In turn, `CN(C)[C@H]1CN(C(=O)c2nn(C)cc2NC(=O)c2cccc(-c3ccnc(NCC4CC4)c3)n2)C[C@@H]1O` [Example 46, 2′-((cyclopropylmethyl)amino)-N-(3-((3S,4S)-3-(dimethylamino)-4-hydroxypyrrolidine-1-carbonyl)-1-methyl-1H-pyrazol-4-yl)-[2,4′-bipyridine]-6-carboxamide] had an IC50 of 186 nM.

Compound `Cn1cc(NC(=O)c2cccc(-c3ccnc(NCC4CC4)c3)n2)c(C(=O)NCc2ccncn2)n1` [Example 47, 2′-((cyclopropylmethyl)amino)-N-(1-methyl-3-((pyrimidin-4-ylmethyl)carbamoyl)-1H-pyrazol-4-yl)-[2,4′-bipyridine]-6-carboxamide] gave an IC50 of 4380 nM.

In turn, `Cn1cc(NC(=O)c2cccc(-c3ccnc(NCC4CC4)c3)n2)c(C(=O)NCc2nncs2)n1` [Example 48, N-(3-(((1,3,4-thiadiazol-2-yl)methyl)carbamoyl)-1-methyl-1H-pyrazol-4-yl)-2′-((cyclopropylmethyl)amino)-[2,4′-bipyridine]-6-carboxamide] came in with a half-inhibitory concentration (IC50) of 2430 nM.

`CN1CCCC(CNC(=O)c2nn(C)cc2NC(=O)c2cccc(-c3ccnc(NCC4CC4)c3)n2)C1` (centres unmarked) [Example 49, 2′-((cyclopropylmethyl)amino)-N-(1-methyl-3-(((1-methylpiperidin-3-yl)methyl)carbamoyl)-1H-pyrazol-4-yl)-[2,4′-bipyridine]-6-carboxamide] yielded an IC50 of 260 nM. Consider `Cn1cc(NC(=O)c2cccc(-c3ccnc(NCC4CC4)c3)n2)c(C(=O)NCCn2cccn2)n1` [Example 50, N-(3-((2-(1H-pyrazol-1-yl)ethyl)carbamoyl)-1-methyl-1H-pyrazol-4-yl)-2′-((cyclopropylmethyl)amino)-[2,4′-bipyridine]-6-carboxamide], for which inhibition was half-maximal at 2680 nM (IC50).

`Cn1cc(NC(=O)c2cccc(-c3ccnc(NCC4CC4)c3)n2)c(C(=O)NC2CCOC2)n1` (centres unmarked) [Example 51, 2′-((cyclopropylmethyl)amino)-N-(1-methyl-3-((tetrahydrofuran-3-yl)carbamoyl)-1H-pyrazol-4-yl)-[2,4′-bipyridine]-6-carboxamide] displayed an IC50 of 2280 nM.

The term IC50 denotes the concentration that inhibits the measured activity by half. Low values mean inhibition by little substance, high ones a need for much substance.

The record behind these values is patent US9586948B2, “Inhibitors of IRAK4 activity” (MERCK SHARP & DOHME CORP., priority 2012, dated 2017).
